The Bradley open melting point set (2014)
“And” between values parts separate entries of the source, which are not always exact repeats. Equal values may be shown once.

Row | Structure (SMILES) | melting point
1 | O=C(c1ccccc1)C(Cl)Cl [2,2-dichloroacetophenone] | 21 °C
2 | CC(Br)C(C)(Br)Br (configuration not stated) [2,3,3-tribromobutane] | 2 °C
3 | OB(O)c1c(F)c(F)c(F)c(F)c1F [2,3,4,5,6-pentafluorobenzeneboronic acid] | 253 °C
4 | O=Cc1ccc(O)c(O)c1O [2,3,4-trihydroxybenzaldehyde] | 161 °C
5 | COc1ccc(B(O)O)c(OC)c1OC [2,3,4-trimethoxybenzeneboronic acid] | 77 °C
6 | CC(C)C(C)C(C)C [2,3,4-trimethylpentane] | -109 °C
7 | O=[N+]([O-])c1c(Cl)c(Cl)cc(Cl)c1Cl [2,3,5,6-Tetrachloronitrobenzene] | 99.5 °C
8 | O=C(O)CCc1c(F)c(F)nc(F)c1F [2,3,5,6-tetrafluoropyridine-4-propionic acid] | 152 °C
9 | O=C(O)c1cc(I)cc(I)c1I [2,3,5-triiodobenzoic acid] | 221 °C
10 | O=C(O)c1cc(F)nc(F)c1F [2,3,6-trifluoropyridine-4-carboxylic acid] | 120 °C
11 | c1ccc2c(c1)Cc1cc3ccccc3cc1-2 [2,3-Benzofluorene Benzo[b]fluorene] | 210 °C
12 | CC(C)C(C)C [2,3-Dimethylbutane] | -128 °C
13 | O=C(O)C(S)C(S)C(=O)O (configuration not stated) [2,3-Disulfanylsuccinic acid] | 197 °C
14 | c1ccc2c(c1)Cc1cc3ccccc3cc1-2 [2,3-benzofluorene] | 210 °C
15 | Cc1cccc(N)c1N [2,3-diaminotoluene] | 58 °C
16 | O=[N+]([O-])c1cccc(Cl)c1Cl [2,3-dichloronitrobenzene] | 62 °C
17 | Oc1cccc(Cl)c1Cl [2,3-dichlorophenol] | 59 °C
18 | COc1cccc(/C=C/[N+](=O)[O-])c1OC [2,3-dimethoxy-beta-nitrostyrene] | 81 °C
19 | COc1cccc(C=O)c1OC [2,3-dimethoxybenzaldehyde] | 52 °C

Row | Structure (SMILES) | melting point
20 | CC(C)C(C)C [2,3-dimethylbutane] | -129 °C
21 | Cc1nccnc1C [2,3-dimethylpyrazine] | -12 °C
22 | CC1(C)O[C@@H](CO)[C@H](CO)O1 [2,3-o-isopropylidene-l-threitol] | 47 °C
23 | C=C(C)CC(C)(C)C [2,4,4-Trimethylpent-1-ene] | -94 °C
24 | C=C(C)CC(C)(C)C [2,4,4-trimethyl-1-pentene] | -93 °C
25 | N#Cc1c(F)c(F)c(F)c(C#N)c1F [2,4,5,6-Tetrafluoroisophthalonitrile] | 79 °C
26 | Cc1cc(Cl)c(Cl)cc1Cl [2,4,5-Trichlorotoluene] | 82.4 °C
27 | Oc1cc(Cl)c(Cl)cc1Cl [2,4,5-trichlorophenol] | 69 °C and 67 °C and 68 °C
28 | COc1cc(OC)c(OC)cc1C=O [2,4,5-trimethoxybenzaldehyde] | 114 °C
29 | Clc1nc(Cl)nc(Cl)n1 [2,4,6-Trichloro-1,3,5-triazine] | 146 °C
30 | Oc1c(Br)cc(Br)cc1Br [2,4,6-tribromophenol] | 89 °C
31 | OB(O)c1c(F)cc(F)cc1F [2,4,6-trifluorobenzeneboronic acid] | 235 °C
32 | Cc1cc(C)c(B(O)O)c(C)c1 [2,4,6-trimethylbenzeneboronic acid] | 124 °C
33 | Cc1cc(C)c(N=C=O)c(C)c1 [2,4,6-trimethylphenyl isocyanate] | 45 °C
34 | Oc1ccc(Cl)cc1Cl [2,4-Dichlorophenol] | 42.5 °C
35 | Cc1ccc([N+](=O)[O-])c(C)c1 [2,4-Dimethyl-1-nitrobenzene] | 7 °C
36 | CCOC(=O)C1=C(C)C(C(=O)OCC)N=C1C (configuration not stated) [2,4-Dimethyl-3,5-dicarbethoxypyrrole] | 137 °C
37 | Cc1ccc(N)c(C)c1 [2,4-Dimethylaniline] | 16 °C
38 | O=Cc1ccc(Cl)cc1Cl [2,4-dichlorobenzaldehyde] | 73 °C

Row | Structure (SMILES) | melting point
39 | COc1ccc(/C=C/[N+](=O)[O-])c(OC)c1 [2,4-dimethoxy-beta-nitrostyrene] | 100 °C
40 | COc1ccc(C=NO)c(OC)c1 [2,4-dimethoxybenzaldoxime] | 107 °C
41 | COc1ccc(B(O)O)c(OC)c1 [2,4-dimethoxybenzeneboronic acid] | 118 °C
42 | Cc1ccc(O)c(C)c1 [2,4-dimethylphenol] | 27 °C
43 | O=Cc1ccc([N+](=O)[O-])cc1[N+](=O)[O-] [2,4-dinitrobenzaldehyde] [listing 1 of 2 here] | 66 °C
44 | O=Cc1ccc([N+](=O)[O-])cc1[N+](=O)[O-] [2,4-dinitrobenzaldehyde] [listing 2 of 2 here] | 67 °C
45 | CC(=O)CC(C)=O [2,4-pentanedione] | -23 °C
46 | CC(C)(C)c1cc(O)c(C(C)(C)C)cc1O [2,5-Di-tert-butylbenzene-1,4-diol] | 218 °C
47 | O=C1C=C(Cl)C(=O)C=C1Cl [2,5-Dichloro-1,4-benzoquinone] | 162 °C
48 | Nc1ccc(N)nc1 [2,5-diaminopyridine] | 96 °C
49 | Cc1cc(Cl)c(C)cc1Cl [2,5-dichloro-p-xylene] | 69 °C
50 | Oc1cc(Cl)ccc1Cl [2,5-dichlorophenol] | 57 °C
51 | O=C(O)c1cc(Cl)sc1Cl [2,5-dichlorothiophene-3-carboxylic acid] | 148 °C
52 | COc1ccc(OC)c(C)c1 [2,5-dimethoxytoluene] | 20 °C
53 | Cc1ccc(C)c(N)c1 [2,5-dimethylaniline] | 15 °C
54 | N#Cc1c(Cl)cccc1Cl [2,6-Dichlorobenzonitrile] | 144 °C
55 | O=[N+]([O-])c1cc(I)c(O)c(I)c1 [2,6-Diiodo-4-nitrophenol] | 157 °C
56 | Cc1cc(CO)c(O)c(CO)c1 [2,6-bis(hydroxymethyl)-p-cresol] | 123 °C
57 | CC(C)(C)c1cccc(C(C)(C)C)c1O [2,6-di-tert-butylphenol] | 37 °C

Results, then the compound that gave them:

Row | melting point | Structure (SMILES)
58 | 54.5 °C | OCC(c1ccccc1)c1ccccc1 [2,2-Diphenylethanol]
59 | 38 °C | O=C(c1ccccc1)c1c(F)c(F)c(F)c(F)c1F [2,3,4,5,6-pentafluorobenzophenone]
60 | 63 °C | O=S(=O)(Cl)c1ccc(Cl)c(Cl)c1Cl [2,3,4-trichlorobenzenesulfonyl chloride]
61 | 114 °C | O=S(=O)(Nc1cccc(Cl)c1Cl)c1ccccc1 [2,3-dichloro-1-phenylsulfonamidobenzene]
62 | 167 °C | NC(=O)c1cccc(Cl)c1Cl [2,3-dichlorobenzamide]
63 | 97 °C | Cc1c(C)n(C#N)c2ccccc12 [2,3-dimethyl-1H-indole-1-carbonitrile]
64 | 188 °C | Cc1c(C)n(C(N)=O)c2ccccc12 [2,3-dimethyl-1H-indole-1-carboxamide]
65 | 29 °C | COc1cccc(C)c1C [2,3-dimethylanisole]
66 | 175 °C | Cc1cccc(B(O)O)c1C [2,3-dimethylbenzeneboronic acid]
67 | 263 °C | Cc1c(C)c(C#N)c2ccccc2c1C#N [2,3-dimethylnaphthalene-1,4-dicarbonitrile]
68 | 75 °C and 72.5 °C | Cc1cccc(O)c1C [2,3-dimethylphenol] [listing 1 of 2 here]
69 | 72 °C | Cc1cccc(O)c1C [2,3-dimethylphenol] [listing 2 of 2 here]
70 | 23 °C | O=C(c1ccc(F)cc1)c1ccccc1F [2,4'-difluorobenzophenone]
71 | 136 °C | O=Cc1ccc(O)cc1O [2,4-Dihydroxybenzaldehyde]
72 | 226 °C | O=C(O)c1ccc(O)cc1O [2,4-Dihydroxybenzoic Acid]
73 | 160 °C | O=[N+]([O-])c1ccc(Nc2ccccc2)c([N+](=O)[O-])c1 [2,4-Dinitro-N-phenylaniline]
74 | 244 °C | OB(O)c1ccc(Cl)cc1Cl [2,4-dichlorobenzeneboronic acid]
75 | 162 °C | O=C(O)c1ccc(Cl)cc1Cl [2,4-dichlorobenzoic acid]
76 | 10 °C | O=[N+]([O-])c1ccc(F)cc1F [2,4-difluoro-1-nitrobenzene]
77 | 249 °C | OB(O)c1ccc(F)cc1F [2,4-difluorobenzeneboronic acid]

Row | melting point | Structure (SMILES)
78 | 136 °C | O=Cc1ccc(O)cc1O [2,4-dihydroxybenzaldehyde]
79 | 35 °C | COc1ccc(N)c(OC)c1 [2,4-dimethoxyaniline]
80 | 205 °C | O=C(O)c1cc(O)ccc1O [2,5-Dihydroxybenzoic acid] [listing 1 of 2 here]
81 | 206 °C | O=C(O)c1cc(O)ccc1O [2,5-Dihydroxybenzoic acid] [listing 2 of 2 here]
82 | 98.3 °C | Cc1ccc(C)c(-c2ccc([N+](=O)[O-])cc2)c1 [2,5-Dimethyl-4'-nitrobiphenyl]
83 | 220 °C | O=C(O)c1cc(Cl)cc([N+](=O)[O-])c1Cl [2,5-dichloro-3-nitrobenzoic acid]
84 | 130 °C | N#Cc1cc(Cl)ccc1Cl [2,5-dichlorobenzonitrile]
85 | 104 °C | NNc1cc(Cl)ccc1Cl [2,5-dichlorophenylhydrazine]
86 | 5 °C | Cc1cc(Cl)ccc1Cl [2,5-dichlorotoluene]
87 | 200 °C and 205 °C | O=C(O)c1cc(O)ccc1O [2,5-dihydroxybenzoic acid]
88 | 205 °C | O=C(O)c1cc(O)ccc1O [2,5-dihydroxybenzoic_acid]
89 | 147 °C | COc1ccc(OC)c(S(N)(=O)=O)c1 [2,5-dimethoxybenzenesulfonamide]
90 | 89 °C | Cc1cc(C=O)c(C)n1-c1ccccc1 [2,5-dimethyl-1-phenylpyrrole-3-carboxaldehyde]
91 | 50 °C | Cc1ccc(C)n1-c1ccccc1 [2,5-dimethyl-1-phenylpyrrole]
92 | 180 °C | Cc1ccc(C)c(B(O)O)c1 [2,5-dimethylbenzeneboronic acid]
93 | 40 °C | Cc1ccc2sc(C)nc2c1 [2,5-dimethylbenzothiazole]
94 | 130 °C | Cc1ccc(C)c(/C=C/C(=O)O)c1 [2,5-dimethylcinnamic acid]
95 | 74.8 °C and 76 °C | Cc1ccc(C)c(O)c1 [2,5-dimethylphenol]
96 | 128 °C | Cc1ccc(C)c(CC(=O)O)c1 [2,5-dimethylphenylacetic acid]
97 | 140 °C | c1ccc(-c2nnc(-c3ccccc3)o2)cc1 [2,5-diphenyl-1,3,4-oxadiazole]
